Laboratory results published in patent US20150176079A1, “MARKERS FOR CANCER” (OSLO UNIVERSITETSSYKEHUS HF, priority 2007, published 2015).

Legend:
Format in all cases: cell-based
[1] = system: MAL mRNA expression in colon cancer cell lines; experiment: Real-time quantitative gene expression of MAL in colon cancer cell lines after drug treatment
Experimental: Six colon cancer cell lines, HCT15, HT29, SW48, SW480, RKO and LS1034 were subjected to treatment with the demethylating drug 5-aza-2′deoxycytidine (1 μM for 72 h and 10 uM for 72 h), the histone deacetylase inhibitor trichostatin A (0.5 μM for 12 h) and a combination of both (1 μM 5-aza-2′deoxycytidine for 72 h, 0.5 μM trichostatin A added the last 12 h). Total RNA was extracted from cell lines (n=46), tumours (n=16), and normal tissue (n=3) using Trizol (Invitrogen, Carlsbad, Calif., USA) and the RNA concentration was determined using ND-1000 Nanodrop (NanoDrop Technologies, Wilmington, Del., USA). For each sample, total RNA was converted to cDNA using a High-Capacity cDNA Archive kit (Applied Biosystems), including random primers. MAL (Hs00242749_m1 and Hs00360838_m1) and the endogenous controls ACTB (Hs99999903_m1) and GUSB (Hs99999908_m1) were amplified separately in 96 well fast plates following the recommended protocol (Applied Biosystems), and the real time quantitative gene expression was measured by the 7900HT Sequence Detection System (Applied Biosystems). All samples were analyzed in triplicate, and the median value was used for data analysis. The human universal reference RNA (containing a mixture of RNA from ten different cell lines; Stratagene) was used to generate a standard curve, and the resulting quantitative expression levels of MAL were normalized against the mean value of the two endogenous controls.

[2] = system: CNRIP1 mRNA expression in colon cancer cell lines; experiment: Quantitative gene expression of CNRIP1 in colon cancer cell lines before and after epigenetic drug treatment; conditions: for increase in relative expression of CNRIP1, the two doses compared: low dose 1 uM versus high dose 10 uM, 72 h, six colon cancer cell lines; for relative expression of CNRIP1 (fold change, untreated sample as calibrator): six colon cancer cell lines HT29, SW48, HCT15, SW480, RKO, LS1034, AZA 1 or 10 uM 72 h, TSA 0.5 μM 12 h, combination 1 μM AZA 72 h + 0.5 μM TSA last 12 h
Experimental: (§1) Gene expression was measured in 6 colon cancer cell lines before and after treatment with epigenetic drugs. The relative expression levels of SPG20, INA and CNRIP1 in the colon cancer cell lines (n=6) was measured. […] The mean expression of ACTB and GUSB was used as endogenous control. TaqMan real-time fluorescence detection (Applied Biosystems, Foster city, CA) was used to quantify mRNA levels in the colon cancer cell lines, as previously described [Gibson et al. and Heid et al.]. cDNA was generated from five μg total RNA using a High-Capacity cDNA Archive kit (Applied Biosystems), including random primers according to the manufacturers' protocol. cDNA from the genes of interest (SPG20, INA and CNRIP1) and the endogenous controls (ACTB and GUSB) were amplified separately by the 7900HT Sequence Detection System (Applied Biosystems) following the protocol recommended by supplier. All samples were analyzed in triplicates. The expression levels were calculated as fold changes using the […] method and the untreated sample as a calibrator. In order to adjust for the possibly variable amounts of cDNA input in each PCR, we normalized the expression quantity of the target genes with the housekeeping genes ACTB and GUSB. Six colon cancer cell lines, HCT15, HT29, SW48, SW480, RKO and LS1034 were subjected to treatment with the demethylating drug 5-aza-2'deoxycytidine (1 μM for 72 h and 10 uM for 72 h), the histone deacetylase inhibitor trichostatin A (0.5 μM for 12 h) and a combination of both (1 μM 5-aza-2'deoxycytidine for 72 h, 0.5 μM trichostatin A added the last 12 h).

[3] = system: INA mRNA expression in colon cancer cell lines; experiment: Quantitative gene expression of INA in colon cancer cell lines before and after epigenetic drug treatment; conditions: for increase in relative expression of INA, the two doses compared: low dose 1 uM versus high dose 10 uM, 72 h, six colon cancer cell lines; for relative expression of INA (fold change, untreated sample as calibrator): six colon cancer cell lines HT29, SW48, HCT15, SW480, RKO, LS1034, AZA 1 or 10 uM 72 h, TSA 0.5 μM 12 h, combination 1 μM AZA 72 h + 0.5 μM TSA last 12 h
Experimental: as §1

[4] = system: SPG20 mRNA expression in colon cancer cell lines; experiment: Quantitative gene expression of SPG20 in colon cancer cell lines before and after epigenetic drug treatment; conditions: for increase in relative expression of SPG20, the two doses compared: low dose 1 uM versus high dose 10 uM, 72 h, six colon cancer cell lines; for relative expression of SPG20 (fold change, untreated sample as calibrator): six colon cancer cell lines HT29, SW48, HCT15, SW480, RKO, LS1034, AZA 1 or 10 uM 72 h, TSA 0.5 μM 12 h, combination 1 μM AZA 72 h + 0.5 μM TSA last 12 h
Experimental: as §1

[5] = system: MAL promoter methylation in colon cancer cell lines; experiment: Methylation-specific PCR (MSP) of the MAL promoter in colon cancer cell lines after drug treatment; conditions: colon cancer cell lines HT29 and HCT15 (FIG. 9)
Experimental: Six colon cancer cell lines, HCT15, HT29, SW48, SW480, RKO and LS1034 were subjected to treatment with the demethylating drug 5-aza-2′deoxycytidine (1 μM for 72 h and 10 uM for 72 h), the histone deacetylase inhibitor trichostatin A (0.5 μM for 12 h) and a combination of both (1 μM 5-aza-2′deoxycytidine for 72 h, 0.5 μM trichostatin A added the last 12 h). DNA from primary tumours and normal mucosa samples was bisulphite treated as previously described. DNA from colon cancer cell lines was bisulphite treated using the EpiTect bisulphite kit (Qiagen Inc., Valencia, Calif., USA). The promoter methylation status of all genes was analyzed by methylation-specific polymerase chain reaction (MSP) using the HotStarTaq DNA polymerase (Qiagen). All results were confirmed with a second independent round of MSP. Human placental DNA (Sigma Chemical Co, St. Louis, Mo., USA) treated in vitro with SssI methyltransferase (New England Biolabs Inc., Beverly, Mass., USA) was used as a positive control for the methylated MSP reaction, whereas DNA from normal lymphocytes was used as a positive control for unmethylated alleles. Water was used as a negative control in both reactions.

[6] = colon cancer cell lines HT29 and HCT15 (FIG. 9)
[7] = listed as 5-aza-2′deoxycytidine

Structure (SMILES)	MAL mRNA expression ([1]; HCT15 cells)	MAL mRNA expression ([1]; HT29 cells)	MAL mRNA expression [1, 6]	increase in relative expression of CNRIP1, the two doses compared [2]	increase in relative expression of CNRIP1, the two doses compared [2, 7]	relative expression of CNRIP1 (fold change, untreated sample as calibrator) [2]	increase in relative expression of INA, the two doses compared [3]	increase in relative expression of INA, the two doses compared [3, 7]	relative expression of INA (fold change, untreated sample as calibrator) [3]	increase in relative expression of SPG20, the two doses compared [4]	increase in relative expression of SPG20, the two doses compared [4, 7]	relative expression of SPG20 (fold change, untreated sample as calibrator) [4]	promoter methylation of MAL (MSP) [5]
Nc1ncn([C@H]2C[C@H](O)[C@@H](CO)O2)c(=O)n1 [5-aza-2′-deoxycytidine]	more moderate levels	high expression	up-regulated mRNA expression	comparable effects	comparable increases	Up-regulated mRNA expression	comparable effects	comparable increases	Up-regulated mRNA expression	comparable effects	comparable increases	Up-regulated mRNA expression	Decreased promoter methylation
CC(/C=C/C(=O)NO)=C\[C@@H](C)C(=O)c1ccc(N(C)C)cc1 [trichostatin A]			did not increase MAL expression			did not increase the gene expression			did not increase the gene expression			did not increase the gene expression	
